# Target: T1, PDF(Fe) (peptide deformylase) (Escherichia coli, UniProt P0A6K3)
# T1 construct: made in house; host or cells: overproducing E. coli cells
# Test: Enantioselective enzymatic deformylation of N-formyl compounds by PDF(Fe), HPLC analysis
# Format: biochemical, E. coli
# Details: Method A: 100 mM MOPS/NaOH, 2 M Li2SO4, pH 7.2, 37° C.
# Description: PDF(Fe) was isolated from overproducing E. coli cells grown at 30° C. in 1.6 l TB medium for 14–16 h. About 13 g (wet weight) cell paste were suspended in 26 ml buffer (20 mM Hepes/KOH, 100 mM KF, pH 7.7 supplemented with 10 μg/ml catalase from bovine liver (Boehringer Mannheim) and 1 mM AEBSF, disintegrated by sonication (Branson B12, 20 min) at 0° C. and centrifuged at 200.000 g for 1 h. The clear supernatant (1.3 g of protein; according to biurete reaction) was mixed with 1.3 ml 10% (w/v) Polymin G-35 (BASF) adjusted to pH 7.7 and centrifuged at 40.000 g for 10 min. The supernatant was applied to a 20 ml Met-Lys-Sepharose column that had been equilibrated with 20 mM Hepes/KOH, 100 mM KF, 0.2 mM TCEP, pH 7.7. After washing with 120 ml of 20 mM Hepes/KOH, 100 mM KF, 0.2 mM TCEP, pH 7.7, PDF(Fe) was eluted with 150 ml 20 mM Hepes/KOH, 100 mM KCl, 0.2 mM TCEP, pH 7.7. The protein containing fractions were concentrated by ultrafiltration using an Amicon PM10 membrane (yield: 140 mg protein, 1400 U/mg; determined according to Groche et al.). After adjustment of the TCEP concentration to 1 mM and protein concentration to 40 mg/ml, the PDF(Fe) stock solution (40 mg/ml=2 mM) was stored frozen at −60° C. After thawing, the PDF(Fe) stock solution could be used directly in the deformylation experiments described below. If however solutions with lower PDF(Fe) concentrations were required for these deformylation experiments, the PDF stock solution was diluted further in 20 mM Hepes/KOH, pH 7.7, 100 mM KCl, 1 mg/ml bovine serum albumin, 10 μg/ml catalase solution.
# In all cases HPLC conditions had to be developed in which the two deformylated isomers were separated from each other and from the formylated isomers. To this end two different techniques were applied that is method 1 and method 2, as described below.
# From the quantities of deformylated isomers in the samples after various reaction times, both the initial deformylation rate constant (kf and ks in M^−1s^−1) could be calculated for both enantiomers, as well as the respective ee values. The enantioselectivity of the enzyme (E value) was calculated by taking the ratio of kf/ks and is given for all Examples in table 1, as well as the maximum ee value (eemax) observed during the experiments.
# A Crownpak CR(+) column (4×150 mm) was used. Samples (5 μl) withdrawn from the deformylation mixture were mixed with 95 μl aqueous HClO4 (10 mM) to inactivate PDF(Fe). Following a brief centrifugation, 20 μl of the supernatant were applied to the Crownpak CR(+) column. For specific chromatographic conditions and retention times see table 2.
# Method 2 (Precolumn derivatization with o-phthaldialdehyde (OPA) and N-acetyl-L-cysteine (NAC). Samples (25 μl) withdrawn from the deformylation mixture were mixed with 25 μl aqueous HClO4 (100 mM) to inactivate PDF(Fe). Following a brief centrifugation, 40 μl of the supernatant were added to 80 μl 1 M aqueous H3BO3/NaOH pH 9.4, subsequently 20 μl OPA reagent (consisting of OPA in H2O/CH3OH 1:1 v/v with a concentration as indicated in table 3) and 20 μl NAC reagent (consisting of NAC in H2O/CH3OH 1:1 v/v with a concentration as indicated in table 3) was added. After the time indicated in table 3 derivatization was terminated by addition of 80 μl (250 mM) aqueous H3PO4, and 20 μl of the solution were instantaneously applied to a Nucleosil 120-5 C18 (250×4 mm) column. Temperature was always ambient and detection was spectrophotometric using a wavelength of 257 nm and/or 340 nm. The used eluent was a mixture of aqueous 0.05 M H3PO4 brought at pH 7.0 with 1 M NaOH, and a percentage of acetonitrile as indicated in table 3. For derivatization of valine aminonitrile borate buffer was adjusted to pH 11 and addition of NAC reagent was done 10 min after OPA reagent had been added. Concentration of H3PO4 used for termination was 500 mM. Derivatization and separation conditions as well as the observed retention times for the deformylated compounds analyzed are compiled in table 3. […]
# T1 sequence (P0A6K3 whole entry): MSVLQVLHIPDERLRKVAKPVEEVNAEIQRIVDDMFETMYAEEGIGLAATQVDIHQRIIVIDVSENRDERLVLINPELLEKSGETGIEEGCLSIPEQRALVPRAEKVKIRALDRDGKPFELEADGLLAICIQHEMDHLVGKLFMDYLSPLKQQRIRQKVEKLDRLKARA
Compound,"E (enantioselectivity, kf/ks)",eemax (maximum ee value observed),kf (rate of deformylation of the most rapidly deformylated enantiomer),ks (rate of deformylation of the least rapidly deformylated enantiomer)
"CC(NC=O)c1cccc2ccccc12 (stereo not drawn) [Example 12, N-formyl-1-(1-naphthyl)-ethylamine]",15,90%,"0,45 M^−1s^−1",0.03 M⁻¹ s⁻¹
"CC(C)C(C#N)NC=O (stereo not drawn) [Example 10, N-formyl-valine aminonitrile]","47,9","95,5%","29,7 M^−1s^−1",0.62 M⁻¹ s⁻¹
"O=CN1CCC[C@H]1C(=O)O [Comparative Experiment B, N-formyl-proline, reference compound]",–,–,"<0,004 M^−1s^−1",<0.004 M⁻¹ s⁻¹
"O=CNC(CO)c1ccccc1 (stereo not drawn) [Example 6, N-formyl-phenylglycinol]","18,5","93,3%","6,3 M^−1s^−1",0.34 M⁻¹ s⁻¹
"N-acetyl-phenylglycine amide [Comparative Experiment A, reference compound]",–,–,"<0,001 M^−1s^−1",<0.001 M⁻¹ s⁻¹
"C[C@@H](CO)NC=O [Example 8, N-formyl-alaninol]",12,"85,6%","0,22 M^−1s^−1",0.018 M⁻¹ s⁻¹

# Same assay, conditions: Method B: absence of Li2SO4, 100 mM MOPS/NaOH, 250 mM NaCl, 0.1 mg/ml catalase, pH 7.2, 37° C.
Compound,"E (enantioselectivity, kf/ks)",eemax (maximum ee value observed),kf (rate of deformylation of the most rapidly deformylated enantiomer),ks (rate of deformylation of the least rapidly deformylated enantiomer)
"O=CNC(CC(=O)O)c1ccccc1 (stereo not drawn) [Example 2, N-formyl-3-amino-3-phenyl-propionic acid]",>1775,100%,"7,1 M^−1s^−1",<0.004 M⁻¹ s⁻¹
"O=CNC(C(=O)O)c1ccccc1 (stereo not drawn) [Example 1, N-formyl-phenylglycine]",2255,"99,6%","10,6 M^−1s^−1",0.0047 M⁻¹ s⁻¹
"O=CNC(CO)c1ccccc1 (stereo not drawn) [Example 6, N-formyl-phenylglycinol]","23,8","90,5%","0,69 M^−1s^−1",0.029 M⁻¹ s⁻¹
"COc1cccc(CC(C#N)NC=O)c1 (stereo not drawn) [Example 11, N-formyl-m-methoxy-phenylalanine aminonitrile]",685,"99,0%",1370 M⁻¹ s⁻¹,2 M⁻¹ s⁻¹

# Same assay, conditions: Method C: absence of Li2SO4, 100 mM MES/NaOH, pH 6.2, 37° C.
Compound,"E (enantioselectivity, kf/ks)",eemax (maximum ee value observed),kf (rate of deformylation of the most rapidly deformylated enantiomer),ks (rate of deformylation of the least rapidly deformylated enantiomer)
"N#CC(Cc1ccccc1)NC=O (stereo not drawn) [Example 9, N-formyl-phenylalanine aminonitrile]",880,"98,8%",880 M⁻¹ s⁻¹,1 M⁻¹ s⁻¹

# Tested on: known peptide deformylases
# Test: not given
# Details: Rajagopalan et al., Biochemistry 1997; cited from earlier work
row,Compound,deformylase activity of known peptide deformylases towards the substrate
1,CSCC[C@H](NC=O)C(=O)O [N-formylmethionine],no or little activity

# Tested on: L-aminoacylases
# Test: not given
# Details: U.S. Pat. No. 4,745,067; cited from earlier work
row,Compound,activity of L-aminoacylases towards the substrate
1,CSCC[C@H](NC=O)C(=O)O [N-formyl-L-methionine],low
